# Data reported in US20100196326A1, “METHOD AND SYSTEM FOR BIASING CELLULAR DEVELOPMENT” (priority 2004, published 2010).
# “Also recorded” adds a separate entry of the source.
# Legend:
# Format in all cases: cell-based, human
# NT2/D1 cells [1] = test: STS-induced astrocytic differentiation, morphology by microscopy; settings: 40 nM STS
# Experimental: (§1) The NT2/D1 cells were seeded (5×10^6 cells per 10 cm Petri dish) in Dulbecco's modified Eagle's medium (DMEM/F-12; Invitrogen) supplemented with 10% heat inactivated fetal bovine serum (FBS; Invitrogen), 0.4 μl/ml penicillin-streptomycin (Invitrogen), and 4 mM glutamine (Invitrogen) and maintained in a humidified atmosphere of 5% CO2/95% air at 37° C. For astrocytic differentiation, 1×10^6 cells were seeded in a 6 well plate and treated three times a week for 3 weeks with 40 nM STS (Sigma). Cells were split twice a week by short exposure to trypsin/EDTA (Invitrogen). Subsequently, these NT2/A cells were evaluated for expression of astrocytic markers and […] by RT-PCR and western blot analysis. After incubation with a different time and concentration of STS, cells were trypsinized and viable cells were counted with a hemocytometer using trypan blue exclusive assay.
# Typical fluorescent microscopic pictures of the transfected cell were taken 48 hr after the transfection in a 8 well chamber slides. The cells expressing EGFP were detected by green fluorescence.
# NT2/D1 cells [2] = test: RT-PCR of astrocyte specific and APP gene expression in treated NT2 cells
# Experimental: as §1
# Total RNA was extracted from the cells and 1 μg of the RNA was reverse-transcribed and amplified using the SuperScript™ ONE STEP™ RT-PCR System (Invitrogen) with the following primers.
# NT2/D1 cells [3] = test: cell viability assay (trypan blue) and DNA fragmentation analysis after STS treatment
# Experimental: as §1
compound,measurement,setting,value
"CN[C@@H]1C[C@H]2O[C@@](C)([C@@H]1OC)n1c3ccccc3c3c4c(c5c6ccccc6n2c5c31)C(=O)NC4 [STS, Staurosporine]",induction of NT2/A cells (astrocytic morphology),NT2/D1 cells [1],induced NT2/A cells; also recorded: induces morphological and functional differentiation
same,"astrocyte specific gene expression (GFAP, LIF, Delta, Jagged-1, BMP-2, 4, BMP-7, GLT-1/EAAT-2, GLAST/EAAT-1)","NT2/D1 cells [2]; 40 nM STS, RT-PCR",induced astrocyte specific gene expression
same,APP gene expression,NT2/D1 cells [2]; during STS-induced astro-gliogenesis,increased in time-dependent manner; also recorded: higher expression level
same,start of mass cell death,NT2/D1 cells [3]; 40 nM STS,8 h
same,cell viability and DNA fragmentation,NT2/D1 cells [3]; STS treatment,cell death
